# Data from US20250041377A1, “PHARMACEUTICAL USE” (ENLITISA (SHANGHAI) PHARMACEUTICAL CO., LTD., priority 2018, published 2025).
# Where a SMILES comes first, the peptide text is derived from it. [ ]: non-standard residue; d: D form. Hyp = O=C(O)[CH]1C[CH](O)CN1
# Legend:
# Type in all cases: in vivo, human
# closed comedones = assay: Cream to treat closed comedones; settings: cream 0.1 mg/g, morning and evening
# Experimental: Compound B (10 mg; see Example 1 above) was first dissolved in WFI (10 g).
# A mixture was then made comprising sorbitan stearate (2 g), cetyl alcohol (4 g), octanoic/capric glyceride (6 g) and glyceryl monostearate (3 g) (all Sinopharm Chemical Reagent Co. Ltd.), which was stirred and heated to 85° C. to melt the mixture completely.
# Glycerin (5 g; Sinopharm Chemical Reagent Co. Ltd.) and ammonium acryloyldimethyltaurate/VP copolymer (0.13 g; Clariant Chemical (Guangzhou) Co., Ltd., China) were mixed with 68.86 g of WFI. This mixture was stirred and heated to 85° C. to provide a homogeneous colloidal suspension.
# The copolymer/water mixture was added to the sorbitan stearate-containing mixture, which was then quickly stirred using emulsification equipment for 5 minutes. The resultant emulsion was cooled to room temperature.
# The Compound B solution was then added to the resultant mixture with stirring to obtain the finished cream. The concentration of Compound B in the final cream was 0.1 mg/g.
# Subjects with closed comedones (blocked pores) and in an acute attacking period of acne were enrolled in the study. Symptoms included sebaceous glands blocked by keratinocytes, forming a slightly hard lump and a protruding white head.
# The cream was evenly smeared in the morning and evening after facial cleansing.
# common cold = assay: Liquid spray to treat common cold
# Experimental: Compound B was dissolved in Injection water (WFI; from a TC-RO-0.25 T/h-2 water treatment system, Yangzhou Tiancheng Water Treatment Devices & Engineering Co., Ltd., Yangzhou, China). The concentration was 0.5 mg/mL. 5 mL was loaded into a plastic water spray bottle.
# The enrolled subject in the study was inflicted with a common cold for 2 days prior to treatment. Other cold treatments were not used before treatment. The subject, who presented a cough, a sore throat and a loss of voice, was required to use the liquid spray (3 to 5 presses each time, in the morning and evening.
# [1] = system: allergic skin (redness, itching, swelling); assay: Liquid spray to treat allergic dermatitis
# Experimental: Compound B (see Example 1 above) was dissolved in Water for Injection (WFI; prepared from a TC-RO-0.25/h-2 Water Treatment System, Yangzhou Tiancheng Water Treatment Devices & Engineering Co., Ltd., Yangzhou, China). The concentration was 0.3 mg/mL.
# The enrolled subjects in the study had allergic skin. Prior to treatment, the patients presented symptoms including skin redness, itching and swelling. Subjects were required to use the liquid spray in the morning and the evening after facial cleansing.
# [2] = system: operation pain during laser surgery; assay: Liquid spray to relieve operational pain during laser surgery
# Experimental: The enrolled subject was required to use 1 mL of a liquid spray comprising the same formulation as that described in Example 14 above in a water spray bottle on half of their face before and after a lattice laser operation to remove of facial melanin.
smiles,measurement,setting,value
"CC(N)C(=O)NC(CCCCN)C(=O)N1CCCC1C(=O)NC(CO)C(=O)NC(Cc1ccc(O)cc1)C(=O)N1CC(O)CC1C(=O)N1CC(O)CC1C(=O)NC(C(=O)NC(Cc1ccc(O)cc1)C(=O)NC(CCCCN)C(=O)O)C(C)O (stereo not drawn) [Compound B, Ala-Lys-Pro-Ser-Tyr-Hyp-Hyp-Thr-Tyr-Lys] (H-AKPSY[Hyp][Hyp]TYK-OH; configuration not given here)",lumps of closed comedones,closed comedones,disappeared after 1 day of use
same,throat pain,"common cold; liquid spray 0.5 mg/mL in WFI, 3 to 5 presses morning and evening, after the first use",throat pain was relieved after the first use
same,throat pain and voice,"common cold; liquid spray 0.5 mg/mL, after the second use",throat was no longer painful and could speak
same,time to relief of itching,"[1]; liquid spray 0.3 mg/mL in Water for Injection, first use, subjects with allergic skin",≤ 8 min
same,"capillary congestion, facial redness and swelling","[1]; liquid spray 0.3 mg/mL, morning and evening, after 1 day of use",no longer red and swollen after 1 day of use
same,pain during lattice laser operation,[2]; 1 mL liquid spray 0.5 mg/mL on half of face before and after operation,did not feel pain during the operation
same,pain after lattice laser operation,"[2]; sprayed half of face, unsprayed half: pain lasted about 2 hours",felt no pain after the operation
